Assay results as given in ChEMBL document CHEMBL3785084, “Rational modification of the lead molecule: Enhancement in the anticancer and dihydrofolate reductase inhibitory activity” (Bioorg Med Chem Lett, 2016).

Legend:
M14 = assay: cells; conditions: Homo sapiens, M14, 48 h; for CC50: read-out: LC50
Description: Cytotoxicity against human M14 cells after 48 hrs by sulforhodamine B assay

NCI-H23 = assay: cells; conditions: Homo sapiens, NCI-H23, 48 h; for CC50: read-out: LC50
Description: Cytotoxicity against human NCI-H23 cells after 48 hrs by sulforhodamine B assay

cells [1] = conditions: Homo sapiens, COLO 205, 48 h
Description: Cytotoxicity against human COLO205 cells after 48 hrs by sulforhodamine B assay

EKVX = assay: cells; conditions: Homo sapiens, 48 h; for CC50: read-out: LC50
Description: Cytotoxicity against human EKVX cells after 48 hrs by sulforhodamine B assay

MDA-MB-231 = assay: cells; conditions: Homo sapiens, MDA-MB-231, 48 h; for CC50: read-out: LC50
Description: Cytotoxicity against human MDA-MB-231 cells after 48 hrs by sulforhodamine B assay

cells [2] = conditions: Homo sapiens, HOP-62, 48 h; for CC50: read-out: LC50
Description: Cytotoxicity against human HOP62 cells after 48 hrs by sulforhodamine B assay

SN12C = assay: cells; conditions: Homo sapiens, 48 h; for CC50: read-out: LC50
Description: Cytotoxicity against human SN12C cells after 48 hrs by sulforhodamine B assay

cells [3] = conditions: Homo sapiens, RPMI-8226, 48 h; for CC50: read-out: LC50
Description: Cytotoxicity against human RPMI8226 cells after 48 hrs by sulforhodamine B assay

cells [4] = conditions: Homo sapiens, HCC 2998, 48 h; for CC50: read-out: LC50
Description: Cytotoxicity against human HCC2998 cells after 48 hrs by sulforhodamine B assay

cells [5] = conditions: Homo sapiens, HCT-15, 48 h; for CC50: read-out: LC50
Description: Cytotoxicity against human HCT15 cells after 48 hrs by sulforhodamine B assay

cells [6] = conditions: Homo sapiens, OVCAR-4, 48 h
Description: Cytotoxicity against human OVCAR4 cells after 48 hrs by sulforhodamine B assay

cells [7] = conditions: Homo sapiens, SF-539, 48 h; for CC50: read-out: LC50
Description: Cytotoxicity against human SF539 cells after 48 hrs by sulforhodamine B assay

cells [8] = conditions: Homo sapiens, LOX IMVI, 48 h; for CC50: read-out: LC50
Description: Cytotoxicity against human LOXIMVI cells after 48 hrs by sulforhodamine B assay

cells [9] = conditions: Homo sapiens, RXF 393, 48 h; for CC50: read-out: LC50
Description: Cytotoxicity against human RXF393 cells after 48 hrs by sulforhodamine B assay

NCI-H522 = assay: cells; conditions: Homo sapiens, NCI-H522, 48 h
Description: Cytotoxicity against human NCI-H522 cells after 48 hrs by sulforhodamine B assay

A549 = assay: cells; conditions: Homo sapiens, A549, 48 h; for CC50: read-out: LC50
Description: Cytotoxicity against human A549 cells after 48 hrs by sulforhodamine B assay

cells [10] = conditions: Homo sapiens, SF-295, 48 h; for CC50: read-out: LC50
Description: Cytotoxicity against human SF295 cells after 48 hrs by sulforhodamine B assay

cells [11] = conditions: Homo sapiens, IGROV-1, 48 h; for CC50: read-out: LC50
Description: Cytotoxicity against human IGROV1 cells after 48 hrs by sulforhodamine B assay

U-251 = assay: cells; conditions: Homo sapiens, U-251, 48 h; for CC50: read-out: LC50
Description: Cytotoxicity against human U251 cells after 48 hrs by sulforhodamine B assay

786-0 = assay: cells; conditions: Homo sapiens, 786-0, 48 h; for CC50: read-out: LC50
Description: Cytotoxicity against human 786-0 cells after 48 hrs by sulforhodamine B assay

cells [12] = conditions: Homo sapiens, CAKI-1, 48 h; for CC50: read-out: LC50
Description: Cytotoxicity against human Caki1 cells after 48 hrs by sulforhodamine B assay

HT-29 = assay: cells; conditions: Homo sapiens, HT-29, 48 h; for CC50: read-out: LC50
Description: Cytotoxicity against human HT-29 cells after 48 hrs by sulforhodamine B assay

CCRF-CEM = assay: cells; conditions: Homo sapiens, 48 h; for CC50: read-out: LC50
Description: Cytotoxicity against human CCRF-CEM cells after 48 hrs by sulforhodamine B assay

Malme-3M = assay: cells; conditions: Homo sapiens, 48 h; for CC50: read-out: LC50
Description: Cytotoxicity against human MALME-3M cells after 48 hrs by sulforhodamine B assay

cells [13] = conditions: Homo sapiens, HCT-116, 48 h; for CC50: read-out: LC50
Description: Cytotoxicity against human HCT116 cells after 48 hrs by sulforhodamine B assay

cells [14] = conditions: Homo sapiens, HOP-92, 48 h; for CC50: read-out: LC50
Description: Cytotoxicity against human HOP92 cells after 48 hrs by sulforhodamine B assay

SK-MEL-5 = assay: cells; conditions: Homo sapiens, SK-MEL-5, 48 h; for CC50: read-out: LC50
Description: Cytotoxicity against human SK-MEL-5 cells after 48 hrs by sulforhodamine B assay

cells [15] = conditions: Homo sapiens, PC-3, 48 h; for CC50: read-out: LC50
Description: Cytotoxicity against human PC3 cells after 48 hrs by sulforhodamine B assay

MCF7 = assay: cells; conditions: Homo sapiens, MCF7, 48 h
Description: Cytotoxicity against human MCF7 cells after 48 hrs by sulforhodamine B assay

cells [16] = conditions: Homo sapiens, OVCAR-8, 48 h
Description: Cytotoxicity against human OVCAR8 cells after 48 hrs by sulforhodamine B assay

cells [17] = conditions: Homo sapiens, UO-31, 48 h; for CC50: read-out: LC50
Description: Cytotoxicity against human UO31 cells after 48 hrs by sulforhodamine B assay

cells [18] = conditions: Homo sapiens, HL-60, 48 h; for CC50: read-out: LC50
Description: Cytotoxicity against human HL-60(TB) cells after 48 hrs by sulforhodamine B assay

cells [19] = conditions: Homo sapiens, SW-620, 48 h; for CC50: read-out: LC50
Description: Cytotoxicity against human SW620 cells after 48 hrs by sulforhodamine B assay

MDA-MB-435 = assay: cells; conditions: Homo sapiens, MDA-MB-435, 48 h; for CC50: read-out: LC50
Description: Cytotoxicity against human MDA-MB-435 cells after 48 hrs by sulforhodamine B assay

cells [20] = conditions: Homo sapiens, SF-268, 48 h; for CC50: read-out: LC50
Description: Cytotoxicity against human SF268 cells after 48 hrs by sulforhodamine B assay

cells [21] = conditions: Homo sapiens, DU-145, 48 h; for CC50: read-out: LC50
Description: Cytotoxicity against human DU145 cells after 48 hrs by sulforhodamine B assay

COc1cc(/C=C2\C(=O)Nc3ccccc32)cc(OC)c1O
GI50 (M14): 2700 nM | TGI (M14): 10.9 µM | CC50 (M14): 67.6 µM | GI50 (NCI-H23): 5 µM | TGI (NCI-H23): 33.8 µM | CC50 (NCI-H23): > 100 µM | GI50 (cells [1]): 12.3 µM | TGI (cells [1]): 26.9 µM | CC50 (cells [1]; read-out: LC50): 58.8 µM | GI50 (EKVX): 4.9 µM | TGI (EKVX): 47.8 µM | CC50 (EKVX): > 100 µM | GI50 (MDA-MB-231): 3100 nM | TGI (MDA-MB-231): 20.8 µM | CC50 (MDA-MB-231): > 100 µM | GI50 (cells [2]): 4300 nM | TGI (cells [2]): 23.4 µM | CC50 (cells [2]): > 100 µM | GI50 (SN12C): 3600 nM | TGI (SN12C): 23.4 µM | CC50 (SN12C): > 100 µM | GI50 (cells [3]): 5.5 µM | TGI (cells [3]): 27.5 µM | CC50 (cells [3]): > 100 µM | GI50 (cells [4]): 11.7 µM | TGI (cells [4]): 24.5 µM | CC50 (cells [4]): 51.3 µM | GI50 (cells [5]): 3200 nM | TGI (cells [5]): 15.1 µM | CC50 (cells [5]): 64.5 µM | GI50 (cells [6]): 4.9 µM | TGI (cells [6]): 31.6 µM | CC50 (cells [6]; read-out: LC50): > 100 µM | GI50 (cells [7]): 2500 nM | TGI (cells [7]): 13.2 µM | CC50 (cells [7]): 53.7 µM | GI50 (cells [8]): 4000 nM | TGI (cells [8]): 16.2 µM | CC50 (cells [8]): 44.6 µM | GI50 (cells [9]): 2500 nM | TGI (cells [9]): 8.3 µM | CC50 (cells [9]): 30.9 µM | GI50 (NCI-H522): 1700 nM | TGI (NCI-H522): 5.1 µM | CC50 (NCI-H522; read-out: LC50): 22.9 µM | GI50 (A549): 4.9 µM | TGI (A549): 47.8 µM | CC50 (A549): > 100 µM | GI50 (cells [10]): 3000 nM | TGI (cells [10]): 30.9 µM | CC50 (cells [10]): > 100 µM | GI50 (cells [11]): 3700 nM | TGI (cells [11]): 20.4 µM | CC50 (cells [11]): 85.1 µM | GI50 (U-251): 2400 nM | TGI (U-251): 14.1 µM | CC50 (U-251): 42.6 µM | GI50 (786-0): 7.1 µM | TGI (786-0): 27.5 µM | CC50 (786-0): 91.2 µM | GI50 (cells [12]): 2900 nM | TGI (cells [12]): 25.1 µM | CC50 (cells [12]): > 100 µM | GI50 (HT-29): 9.1 µM | TGI (HT-29): 30.9 µM | CC50 (HT-29): > 100 µM | GI50 (CCRF-CEM): 5.1 µM | TGI (CCRF-CEM): > 100 µM | CC50 (CCRF-CEM): > 100 µM | GI50 (Malme-3M): 2900 nM | TGI (Malme-3M): 21.8 µM | CC50 (Malme-3M): > 100 µM | GI50 (cells [13]): 3300 nM | TGI (cells [13]): 13.4 µM | CC50 (cells [13]): 37.1 µM | GI50 (cells [14]): 4200 nM | TGI (cells [14]): 48.9 µM | CC50 (cells [14]): > 100 µM | GI50 (SK-MEL-5): 2900 nM | TGI (SK-MEL-5): 10.7 µM | CC50 (SK-MEL-5): 33.1 µM | GI50 (cells [15]): 20.8 µM | TGI (cells [15]): > 100000 nM | CC50 (cells [15]): > 100 µM | GI50 (MCF7): 700 nM | TGI (MCF7): 15.1 µM | CC50 (MCF7; read-out: LC50): > 100 µM | GI50 (cells [16]): 5 µM | TGI (cells [16]): 29.5 µM | CC50 (cells [16]; read-out: LC50): > 100 µM | GI50 (cells [17]): 2600 nM | TGI (cells [17]): 19.9 µM | CC50 (cells [17]): > 100 µM | GI50 (cells [18]): 2800 nM | TGI (cells [18]): 11.2 µM | CC50 (cells [18]): > 100 µM | GI50 (cells [19]): 3200 nM | TGI (cells [19]): 13.2 µM | CC50 (cells [19]): 36.7 µM | GI50 (MDA-MB-435): 600 nM | TGI (MDA-MB-435): 2200 nM | CC50 (MDA-MB-435): 6 µM | GI50 (cells [20]): 4300 nM | TGI (cells [20]): 28.8 µM | CC50 (cells [20]): > 100 µM | GI50 (cells [21]): 5.4 µM | TGI (cells [21]): 46.7 µM | CC50 (cells [21]): > 100 µM

O=C1Nc2ccccc2/C1=C/c1cn(CC(O)Cn2cc(/C=C3\C(=O)Nc4ccccc43)c3ccccc32)c2ccccc12 (stereo unspecified)
GI50 (M14): 1300 nM | TGI (M14): 2.8 µM | CC50 (M14): 6.02 µM | GI50 (NCI-H23): 1.5 µM | TGI (NCI-H23): 3.3 µM | CC50 (NCI-H23): 7.2 µM | GI50 (cells [1]): 1.6 µM | TGI (cells [1]): 3.6 µM | GI50 (EKVX): 1.8 µM | TGI (EKVX): 3.7 µM | CC50 (EKVX): 7.8 µM | GI50 (MDA-MB-231): 1200 nM | TGI (MDA-MB-231): 2.7 µM | CC50 (MDA-MB-231): 5.7 µM | GI50 (cells [2]): 1400 nM | TGI (cells [2]): 3.06 µM | CC50 (cells [2]): 6.6 µM | GI50 (SN12C): 1500 nM | TGI (SN12C): 3.1 µM | CC50 (SN12C): 6.5 µM | GI50 (cells [3]): 2.1 µM | TGI (cells [3]): 5.4 µM | CC50 (cells [3]): > 100 µM | GI50 (cells [4]): 2.2 µM | TGI (cells [4]): 5.2 µM | CC50 (cells [4]): 17.3 µM | GI50 (cells [5]): 1700 nM | TGI (cells [5]): 3.7 µM | CC50 (cells [5]): 7.7 µM | GI50 (cells [6]): 1.8 µM | TGI (cells [6]): 3.9 µM | GI50 (cells [7]): 1500 nM | TGI (cells [7]): 3.1 µM | CC50 (cells [7]): 6.1 µM | GI50 (cells [8]): 320 nM | TGI (cells [8]): 1.3 µM | CC50 (cells [8]): 4.1 µM | GI50 (cells [9]): 2040 nM | TGI (cells [9]): 3.7 µM | CC50 (cells [9]): 6.9 µM | GI50 (NCI-H522): 1600 nM | TGI (NCI-H522): 3.5 µM | GI50 (A549): 1.5 µM | TGI (A549): 3.2 µM | CC50 (A549): 6.8 µM | GI50 (cells [10]): 1600 nM | TGI (cells [10]): 3.2 µM | CC50 (cells [10]): 6.4 µM | GI50 (cells [11]): 470 nM | TGI (cells [11]): 1.9 µM | CC50 (cells [11]): 5.3 µM | GI50 (U-251): 1500 nM | TGI (U-251): 2.9 µM | CC50 (U-251): 5.6 µM | GI50 (786-0): 1.6 µM | TGI (786-0): 3.2 µM | CC50 (786-0): 6.1 µM | GI50 (cells [12]): 1600 nM | TGI (cells [12]): 3.3 µM | CC50 (cells [12]): 7.1 µM | GI50 (HT-29): 1.4 µM | TGI (HT-29): 3.5 µM | CC50 (HT-29): 8.7 µM | GI50 (CCRF-CEM): 2.8 µM | TGI (CCRF-CEM): 13.4 µM | CC50 (CCRF-CEM): > 100 µM | GI50 (Malme-3M): 1500 nM | TGI (Malme-3M): 3.2 µM | CC50 (Malme-3M): 7.1 µM | GI50 (cells [13]): 1600 nM | TGI (cells [13]): 4.1 µM | CC50 (cells [13]): 12.5 µM | GI50 (cells [14]): 1800 nM | TGI (cells [14]): 4.1 µM | CC50 (cells [14]): 9.5 µM | GI50 (SK-MEL-5): 1900 nM | TGI (SK-MEL-5): 3.8 µM | CC50 (SK-MEL-5): 7.3 µM | GI50 (cells [15]): 1.2 µM | TGI (cells [15]): 2600 nM | CC50 (cells [15]): 5.8 µM | GI50 (MCF7): 450 nM | TGI (MCF7): 1.8 µM | GI50 (cells [16]): 2.3 µM | TGI (cells [16]): 4.7 µM | GI50 (cells [17]): 1200 nM | TGI (cells [17]): 2.9 µM | CC50 (cells [17]): 6.7 µM | GI50 (cells [18]): 2900 nM | TGI (cells [18]): 10.9 µM | CC50 (cells [18]): 57.5 µM | GI50 (cells [19]): 1300 nM | TGI (cells [19]): 3.4 µM | CC50 (cells [19]): 9.04 µM | GI50 (MDA-MB-435): 1800 nM | TGI (MDA-MB-435): 3400 nM | CC50 (MDA-MB-435): 6.6 µM | GI50 (cells [20]): 1700 nM | TGI (cells [20]): 3.9 µM | CC50 (cells [20]): 8.7 µM | GI50 (cells [21]): 1.5 µM | TGI (cells [21]): 2.9 µM | CC50 (cells [21]): 5.6 µM
